Reference: paper PMC7229044, “Triterpenoid acids isolated from Schinus terebinthifolia fruits reduce Staphylococcus aureus virulence and abate dermonecrosis” (Scientific Reports, 2020)
≈ marks a conversion by molar mass, not a printed value. Entries after “also recorded” stand apart in the source; their conditions may differ.

Key:
[1] = test system: S. aureus UAMS-1; test: Broth microdilution growth inhibition (MIC); assay type: cell-based, Staphylococcus aureus; conditions: ND = not detected at 4–563 μM; for IC50: UAMS1, ≥50% growth inhibition
Protocol: (§1) Fraction 430F-F5 and isolated compounds of S. terebinthifolia 1-3, were evaluated for minimum inhibitory concentrations (MICs) against the four agr groups, the biofilm test strain (UAMS-1) and NRS249 (for δ-toxin quantification experiments) following the Clinical Laboratory Standards Institute (CLSI) M100-S23 guidelines for microtiter broth dilution testing. Fraction, compounds 1-3 and vehicle were tested at a concentration range of 4 to 563 μM, using 2-fold serial dilution. The optical density (OD600nm) was measured with a BioTek Cytation 3 multimode plate reader, to calculate percent inhibition of growth. […] Control included the vehicle (DMSO) and antibiotic (Ampicillin, MP Biomedicals Inc). All tests were performed in triplicate and repeated using a new stock of bacteria on a separate day.

[2] = test system: S. aureus AH1747 (agr III); test: Broth microdilution growth inhibition (MIC); assay type: cell-based, Staphylococcus aureus; conditions: for IC50: ≥50% growth inhibition; for IC50 / MIC: ND = not detected at 4–563 μM; for MIC: ≥90% growth inhibition
Protocol: as §1

[3] = test system: S. aureus AH1263; LAC (agr I); test: Broth microdilution growth inhibition (MIC); assay type: cell-based, Staphylococcus aureus; conditions: for IC50: read-out: IC50 (growth)
Protocol: as §1

[4] = test system: S. aureus NRS249 (agr I); test: Broth microdilution growth inhibition (MIC); assay type: cell-based, Staphylococcus aureus; conditions: ND = not detected at 4–563 μM; for IC50: ≥50% growth inhibition; for MIC: ≥90% growth inhibition
Protocol: as §1

[5] = test system: S. aureus UAMS-929; test: Broth microdilution growth inhibition (MIC); assay type: cell-based, Staphylococcus aureus; conditions: for IC50: UAMS929, read-out: IC50 (growth)
Protocol: as §1

[6] = test system: all S. aureus accessory gene regulator (agr) alleles; test: microbe, parasite or virus in culture; assay type: cell-based; conditions: Staphylococcus aureus, read-out: IC50 values for quorum sensing inhibition, range over all four agr types
Protocol: (§2) S. aureus agr reporter strains AH1677 (agr I), AH430 (agr II), AH1747 (agr III) and AH1872 (agr IV) were grown overnight in TSB supplemented with chloramphenicol at 37 °C while shaking at 200 rpm. Cultures of S. aureus were standardized by optical density (OD600nm) matching to a 0.5 McFarland standard to reach a final inoculum density in the wells of 5 × 10^5 CFU mL^−1 in TSB, supplemented with 10 μg/mL chloramphenicol. […] Black sided, 96-well, clear bottom, tissue-culture treated plates (Costar 3603) with final well volume of 200 μL were used for all agr inhibition assays. Plates were incubated in a humidified chamber at 37 °C while shaking at 260 rpm. After 24 hours, plates were removed and OD600 and fluorescence were measured by plate reader at an excitation of 493 nm and emission of 535 nm. All tests were performed in triplicate and repeated using a new stock of bacteria on a separate day.

[7] = test system: agr activity, AH1872 (agr IV); test: microbe, parasite or virus in culture; assay type: cell-based; conditions: Staphylococcus aureus, 24 h; for IC50: read-out: IC50 for quorum sensing inhibitory activity
Protocol: as §2

[8] = test system: agr activity, AH430 (agr II); test: microbe, parasite or virus in culture; assay type: cell-based; conditions: Staphylococcus aureus, 24 h; for IC50: read-out: IC50 for quorum sensing inhibitory activity; for IC90: read-out: IC90 for quorum sensing inhibitory activity
Protocol: as §2

[9] = test system: agr activity, AH1677 (agr I); test: microbe, parasite or virus in culture; assay type: cell-based; conditions: Staphylococcus aureus, 24 h, read-out: IC50 for quorum sensing inhibitory activity
Protocol: as §2

[10] = test system: agr activity, AH1747 (agr III); test: microbe, parasite or virus in culture; assay type: cell-based; conditions: Staphylococcus aureus, 24 h; for IC50: read-out: IC50 for quorum sensing inhibitory activity; for IC90: read-out: IC90 for quorum sensing inhibitory activity
Protocol: as §2

[11] = test system: S. aureus UAMS-1 biofilm; test: Biofilm formation, human plasma protein-coated microtiter assay; assay type: cell-based, Staphylococcus aureus; conditions: crystal violet; for concentrations that reduced biofilm: for 2 and 3 bacterial growth also reduced
Protocol: All compounds were examined (2–281 μM) for impact on S. aureus biofilm formation using a human plasma protein-coated assay as previously described[49],[51],[52]. Additionally, to monitor for any growth impact in this assay, the optical density of planktonic cells in the biofilm wells was calculated by transferring the supernatant to a new 96-well plate and reading the OD600nm in a BioTek plate reader. S. aureus isolate UAMS-1 was used for the biofilm assay, and its isogenic sarA mutant (UAMS-929), which has a biofilm deficient phenotype, served as a positive control. All tests were performed in triplicate and repeated using a new stock of bacteria on a separate day.

[12] = HaCaT cytotoxicity assay (LDH); assay type: cell-based; conditions: human, HaCaT keratinocyte cells, read-out: IC50 for cytotoxicity to HaCaTs
Protocol: The HaCaT cell line was maintained and cytotoxicity of compounds (1-3) were assessed using the LDH cytotoxicity assay as previously described. The Therapeutic Index (TI) was calculated as a ratio of the TD50 (Toxic dose for cytotoxicity at IC50) and ED50 (effective dose for quorum sensing inhibiton IC50): = TD50/ED50 . Cytotoxicity of supernatants was further evaluated using a viability/cytotoxicity assay and imaged with fluorescent microscopy as previously described. All tests were performed in triplicate and the full experiment was repeated on a separate day using fresh cell stock.

[13] = test system: MRSA (LAC, USA300); test: Murine model of MRSA skin infection (dermonecrosis); assay type: in vivo; conditions: BALB/c mice, intradermal, 1×10^8 CFU LAC with single 50 µg dose at time of infection; vs DMSO vehicle
Excerpt: A previously described murine model of MRSA skin infection was used to determine the efficacy of each Schinus compound as an anti-infective[25]. All animal experiments described herein were approved by and conducted in accordance with the recommendations of the Animal Care and Use Committee at the University of Colorado Anschutz Medical Campus (IACUC protocol number 117217). One day prior to inoculation, the abdominal hair of 8 week old female BALB/c mice was shaved and chemically removed with topical application of Nair for 1 minute. LAC (USA300, AH1263) was grown in TSB media overnight at 37 °C in a shaking incubator (200 rpm). Overnight LAC culture was diluted 1:100 in fresh TSB media and allowed to grow to early log phase (~2 hr to OD600nm 0.5). Cells were washed in sterile PBS and resuspended to achieve an inoculum of 1×10^8 CFU. 50 μL inoculum suspensions containing 1×10^8 CFU LAC and 50 μg of each compound 1-3 (diluted in DMSO) or DMSO vehicle control were injected intradermally into the abdominal skin of each BALB/c mouse. Baseline body weights for the mice were taken prior to injection and each day following. For determination of lesion size, digital photos of skin lesions were taken with an iPhone camera and analyzed with ImageJ software for Mac. Inoculum CFU was verified by serial dilution, plating, and colony counting after overnight incubation of the plate.

[14] = Staphylococcus aureus, UAMS1, ≥90% growth inhibition
[15] = UAMS-929, ≥90% growth inhibition, ND = not detected at 4–563 μM
[16] = AH1263, LAC (agr I), ≥90% growth inhibition, ND = not detected at test range 4–563 μM

SMILES	IC50 ([1]; Staphylococcus aureus) [µM]	MIC [1, 14] [µM]	MIC ([1]; ≥90% growth inhibition) [µM]	IC50 ([2]; Staphylococcus aureus) [µM]	MIC ([2]; Staphylococcus aureus) [µM]	MIC ([3]; Staphylococcus aureus) [µM]	IC50 ([3]; Staphylococcus aureus) [µM]	IC50 ([4]; Staphylococcus aureus) [µM]	MIC ([4]; Staphylococcus aureus) [µM]	MIC ([5]; Staphylococcus aureus, UAMS929) [µM]	IC50 [6] [µM]	IC50 [7] [µM]	IC50 [8] [µM]	IC90 [8] [µM]	IC50 [9] [µM]	IC50 [10] [µM]	IC90 [10] [µM]	concentrations that increased biofilm formation [11] [µM]	concentrations that reduced biofilm [11] [µM]	IC50 [12] [µM]	other results
CC(=CCCC(C)C1CCC2(C)C3=CCC4C(C)(C)C(O)CCC4(C)C3CCC12C)C(=O)O (stereo not drawn) [Compound 3, 3α-hydroxytirucalla-7,24Z-dien-26-oic acid]	35	70 (≈ 32 µg/mL)	70 (≈ 32 µg/mL)	9	18 (≈ 8.22 µg/mL)	141 (≈ 64.4 µg/mL)	35	18	281 (≈ 128 µg/mL)	70 (≈ 32 µg/mL)	4 to 9	9	9	281	4	9	18	2 to 16	≥ 35	70	MIC [2]: 18 µM (≈ 8.22 µg/mL); IC50 ([5]; Staphylococcus aureus): 35 µM; MIC [5, 15]: 70 µM (≈ 32 µg/mL); IC90 ([7]; read-out: IC90 for quorum sensing inhibitory activity): 281 µM
CC1(C)CCC2(C(=O)O)CCC3(C)C(=CCC4C5(C)CCC(=O)C(C)(C)C5CCC43C)C2C1 (stereo not drawn) [Compound 1, 3-oxo-olean-12-en-28-oic acid]	> 563	> 563		141	281 (≈ 128 µg/mL)						4 to 70	35	4	70	18	70	281	2 to 70	141 to 281	140	growth inhibition ([2]; at up to 80 µM): ~ 15%; MIC [3, 16]: > 563 µM
CC(=CCCC(C)C1CCC2(C)C3=CCC4C(C)(C)C(=O)CCC4(C)C3CCC12C)C(=O)O (stereo not drawn) [Compound 2, 3-oxotirucalla-7,24Z-dien-26-oic acid]	35	70 (≈ 31.8 µg/mL)	70 (≈ 31.8 µg/mL)			563 (≈ 256 µg/mL)	141	9	18 (≈ 8.18 µg/mL)	70 (≈ 31.8 µg/mL)	2 to 9	9	2	281	4	9	281	2 to 16	≥ 35	70	MIC [3, 16]: 563 µM (≈ 256 µg/mL); MIC [4]: 18 µM (≈ 8.18 µg/mL); IC50 ([5]; Staphylococcus aureus): 35 µM; MIC [5, 15]: 70 µM (≈ 31.8 µg/mL); dermonecrotic lesion / skin damage [13]: reduced the dermonecrotic lesion area to nearly undetectable levels; also recorded: decreased MRSA-associated tissue damage to the limit of detection
